# Assay results published in US20240116985A1, “STAPLED PEPTIDES AND METHODS THEREOF” (priority 2020, published 2024).
# Target: T1, full-length beta-Catenin (Uniprot ID P35222) (Homo sapiens, UniProt P35222)
# T1 construct: 10 nM full-length beta-Catenin (Uniprot ID P35222)
# T1 sequence (P35222 1-781): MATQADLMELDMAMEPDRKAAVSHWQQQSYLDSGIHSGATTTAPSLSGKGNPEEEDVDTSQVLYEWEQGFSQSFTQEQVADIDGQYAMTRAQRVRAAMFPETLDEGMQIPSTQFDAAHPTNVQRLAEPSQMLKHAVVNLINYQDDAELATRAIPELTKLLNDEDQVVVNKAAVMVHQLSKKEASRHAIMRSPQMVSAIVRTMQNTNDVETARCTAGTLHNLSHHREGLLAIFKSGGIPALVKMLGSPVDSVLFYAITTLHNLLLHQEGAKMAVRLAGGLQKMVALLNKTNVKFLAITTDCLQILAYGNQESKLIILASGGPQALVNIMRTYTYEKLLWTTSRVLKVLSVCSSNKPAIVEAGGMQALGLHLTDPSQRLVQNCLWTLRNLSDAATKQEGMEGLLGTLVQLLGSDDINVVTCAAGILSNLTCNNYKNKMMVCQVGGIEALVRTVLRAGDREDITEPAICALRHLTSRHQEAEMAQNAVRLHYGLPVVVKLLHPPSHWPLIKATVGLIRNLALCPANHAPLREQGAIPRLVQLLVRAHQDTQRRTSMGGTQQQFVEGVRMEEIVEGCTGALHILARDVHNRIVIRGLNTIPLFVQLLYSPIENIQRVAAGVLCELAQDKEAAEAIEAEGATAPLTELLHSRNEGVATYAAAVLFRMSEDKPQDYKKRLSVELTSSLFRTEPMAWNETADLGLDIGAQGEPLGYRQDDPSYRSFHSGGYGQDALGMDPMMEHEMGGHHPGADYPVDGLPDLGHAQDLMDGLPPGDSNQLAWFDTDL
# Experiment: Fluorescence polarization IC50 (beta-catenin / 5FAM-TCF4 10-53 competition)
# Format: binding
# Settings: beta-Catenin FP IC50 (nM), fluorescence polarization
row,Structure (SMILES),IC50 [nM]
1,"CC(=O)N1CCC[C@]12CC=CCCCC1(CCCC=CCCCOC(=O)N3CC[C@@](C(=O)N[C@@H](Cc4ccsc4)C(=O)N[C@@H](Cc4csc5ccccc45)C(=O)N[C@@H](CCC(N)=O)C(N)=O)(C3)NC(=O)[C@H](CC(C)C)NC(=O)[C@H](Cc3ccccc3)NC(=O)[C@H](C)NC(=O)[C@H](C)NC(=O)[C@H](CC(=O)OCCSSc3ccccc3)NC(=O)[C@H](CC(=O)O)NC1=O)NC(=O)[C@H](CC(C)(C)C)NC(=O)[C@H](CC(=O)O)NC2=O (stereo partly drawn) [I-1956, Ac-PL3-Asp-Npg-B5-Asp-[EtSSPh]AspE-Ala-Ala-Phe-Leu-PyrS2-3Thi-BztA-Gln-NH2]",849
2,"CC(C)C[C@@H]1NC(=O)[C@H](Cc2ccccc2)NC(=O)[C@H](C)NC(=O)[C@H](C)NC(=O)[C@H](Cc2cccc(C(=O)O)c2)NC(=O)[C@H](CC(=O)O)NC(=O)C2(CCCC=CCCCOC(=O)N3CC[C@@](C(=O)N[C@@H](Cc4ccccc4Cl)C(=O)N[C@@H](Cc4csc5ccccc45)C(=O)N[C@@H](C)C(N)=O)(C3)NC1=O)CCCC=CC[C@]1(CCCN1C(=O)Oc1ccccc1)C(=O)N[C@@H](CC(=O)O)C(=O)N[C@@H](CC(C)(C)C)C(=O)N2 (stereo partly drawn) [I-2327, CO2Ph-PL3-Asp-Npg-B5-Asp-3COOHF-Ala-Ala-Phe-Leu-PyrS2-2C1F-BztA-Ala-NH2]",376

# Same assay, conditions: fluorescence polarization, beta-catenin; read-out: FP EC50
row,Structure (SMILES),IC50 [nM]
1,"CC(=O)N1CCC[C@]12CC=CCCCC1(CCCC=CCCCOC(=O)N3CC[C@@](C(=O)N[C@@H](Cc4ccccc4Cl)C(=O)N[C@@H](Cc4csc5ccccc45)C(=O)N[C@@H](CC(C)C)C(N)=O)(C3)NC(=O)[C@H](CC(C)C)NC(=O)[C@H](Cc3ccccc3)NC(=O)[C@H](C)NC(=O)[C@H](C)NC(=O)[C@H](CC(=O)O)NC(=O)[C@H](CC(=O)O)NC1=O)NC(=O)[C@H](CC(C)(C)C)NC(=O)[C@H](CC(=O)O)NC2=O (stereo partly drawn) [I-1417, Ac-PL3-Asp-Npg-B5-Asp-Asp-Ala-Ala-Phe-Leu-PyrS2-2C1F-BztA-Leu-NH2]",198

# Same assay, conditions: fluorescence polarization; read-out: beta-Catenin FP IC50
row,Structure (SMILES),IC50 [nM]
1,"CC(=O)N1CCC[C@]12CC=CCCCC1(CCCC=CCCCOC(=O)N3CC[C@@](C(=O)N[C@@H](Cc4ccsc4)C(=O)N[C@@H](Cc4csc5ccccc45)C(=O)N[C@@H](Cc4c[nH]cn4)C(N)=O)(C3)NC(=O)[C@H](CCC(N)=O)NC(=O)[C@H](Cc3ccccc3)NC(=O)[C@H](C)NC(=O)[C@H](C)NC(=O)[C@H](CC(=O)O)NC(=O)[C@H](CC(=O)O)NC1=O)NC(=O)[C@H](CC(C)(C)C)NC(=O)[C@H](CC(=O)O)NC2=O (stereo partly drawn) [I-1459, Ac-PL3-Asp-Npg-B5-Asp-Asp-Ala-Ala-Phe-Gln-PyrS2-3Thi-BztA-His-NH2]",5
2,"CC(=O)N1CCC[C@]12CC=CCCCC1(CCCC=CCCCOC(=O)N3CC[C@@](C(=O)N[C@@H](Cc4ccccc4Cl)C(=O)N[C@@H](Cc4csc5ccccc45)C(=O)N[C@@H](CC(C)C)C(N)=O)(C3)NC(=O)[C@H](CC(C)C)NC(=O)[C@H](Cc3ccccc3)NC(=O)[C@H](C)NC(=O)[C@H](C)NC(=O)[C@H](CC(=O)O)NC(=O)[C@H](CC(=O)O)NC1=O)NC(=O)[C@H](CC(C)(C)C)NC(=O)[C@H](CC(=O)O)NC2=O (stereo partly drawn) [I-1417, Ac-PL3-Asp-Npg-B5-Asp-Asp-Ala-Ala-Phe-Leu-PyrS2-2C1F-BztA-Leu-NH2]",198
3,"CC(=O)N1CCC[C@]12CC=CCCCC1(CCCC=CCCCOC(=O)N3CC[C@@](C(=O)N[C@@H](Cc4ccccc4)C(=O)N[C@@H](Cc4csc5ccccc45)C(=O)N[C@@H](CCC(N)=O)C(N)=O)(C3)NC(=O)[C@H](CC(C)C)NC(=O)[C@H](Cc3ccccc3)NC(=O)[C@H](C)NC(=O)[C@H](CCCCNC(C)C)NC(=O)[C@H](CCC(N)=O)NC(=O)[C@H](CC(=O)O)NC1=O)NC(=O)[C@H](Cc1ccc(O)cc1)NC(=O)[C@H](CC(N)=O)NC2=O (stereo partly drawn) [I-1647, Ac-PL3-Asn-Tyr-B5-Asp-Gln-iPrLys-Ala-Phe-Leu-PyrS2-Phe-BztA-Gln-NH2]",2350
4,"CC(=O)N1CCC[C@]12CC=CCCCC1(CCCC=CCCCOC(=O)N3CC[C@@](C(=O)N[C@@H](Cc4ccccc4)C(=O)N[C@@H](Cc4csc5ccccc45)C(=O)N[C@@H](CCC(N)=O)C(N)=O)(C3)NC(=O)[C@H](CCCCNC(C)C)NC(=O)[C@H](Cc3ccccc3)NC(=O)[C@H](C)NC(=O)[C@H](CCCCNC(C)C)NC(=O)[C@H](CCC(N)=O)NC(=O)[C@H](CC(=O)O)NC1=O)NC(=O)[C@H](CC(C)(C)C)NC(=O)[C@H](CC(N)=O)NC2=O (stereo partly drawn) [I-1653, Ac-PL3-Asn-Npg-B5-Asp-Gln-iPrLys-Ala-Phe-iPrLys-PyrS2-Phe-BztA-Gln-NH2]",903
5,"CC(=O)N1CCC[C@]12CC=CCCCC1(CCCC=CCCCOC(=O)N3CC[C@@](C(=O)N[C@@H](Cc4ccccc4)C(=O)N[C@@H](Cc4csc5ccccc45)C(=O)N[C@@H](CCCCN)C(N)=O)(C3)NC(=O)[C@H](CC(C)C)NC(=O)[C@H](Cc3ccccc3)NC(=O)[C@H](C)NC(=O)[C@H](CO)NC(=O)[C@H](CCC(N)=O)NC(=O)[C@H](CC(=O)O)NC1=O)NC(=O)[C@H](CC1CCCCC1)NC(=O)[C@H](CC(N)=O)NC2=O (stereo partly drawn) [I-2422, Ac-PL3-Asn-Cha-B5-Asp-Gln-Ser-Ala-Phe-Leu-PyrS2-Phe-BztA-Lys-NH2]",3360
6,"CC(=O)N1CCC[C@]12CC=CCCCC1(CCCC=CCOC(=O)N3CC(C(=O)N[C@@H](Cc4ccsc4)C(=O)N[C@@H](Cc4csc5ccccc45)C(=O)N[C@@H](CCC(N)=O)C(N)=O)(C3)NC(=O)[C@H](CC(N)=O)NC(=O)[C@H](Cc3ccccc3)NC(=O)[C@H](C)NC(=O)[C@H](C)NC(=O)[C@H](CC(=O)O)NC(=O)[C@H](CC(=O)O)NC1=O)NC(=O)[C@H](CC(C)(C)C)NC(=O)[C@H](CC(=O)O)NC2=O (stereo partly drawn) [I-1826, Ac-PL3-Asp-Npg-B5-Asp-Asp-Ala-Ala-Phe-Asn-Az-3Thi-BztA-Gln-NH2]",474
7,"CC(=O)N1CCC[C@]12CC=CCCCC1(CCCC=CCCCOC(=O)N3CC[C@@](C(=O)N[C@@H](Cc4cccc(Br)c4)C(=O)N[C@@H](CC4CCC4)C(=O)N[C@@H](CCC(N)=O)C(N)=O)(C3)NC(=O)[C@H](CC(C)C)NC(=O)[C@H](Cc3ccccc3)NC(=O)[C@H](C)NC(=O)[C@H](C)NC(=O)[C@H](Cc3cccc(C(=O)O)c3)NC(=O)[C@H](CC(=O)O)NC1=O)NC(=O)[C@H](CC(C)(C)C)NC(=O)[C@H](CC(=O)O)NC2=O (stereo partly drawn) [I-2154, Ac-PL3-Asp-Npg-B5-Asp-3COOHF-Ala-Ala-Phe-Leu-PyrS2-3BrF-Cba-Gln-NH2]",9550
8,"CC(C)C[C@@H]1NC(=O)[C@H](Cc2ccccc2)NC(=O)[C@H](C)NC(=O)[C@H](C)NC(=O)[C@H](Cc2cccc(C(=O)O)c2)NC(=O)[C@H](CC(=O)O)NC(=O)C2(CCCCCCCCOC(=O)N3CC[C@@](C(=O)N[C@@H](Cc4ccccc4C(F)(F)F)C(=O)N[C@@H](Cc4csc5ccccc45)C(=O)N[C@@H](CCC(N)=O)C(N)=O)(C3)NC1=O)CCCCCC[C@@]13CCCN1C(=O)CCCCCC[C@H](NC(=O)[C@H](CC(=O)O)NC3=O)C(=O)N2 (stereo partly drawn) [I-2529, 5hexenyl-PL3-Asp-AllylGly-B5-Asp-3COOHF-Ala-Ala-Phe-Leu-PyrS2-2F3MeF-BztA-Gln-NH2]",153
9,"CC(=O)N1CCC[C@]12CC=CCCCC1(CCCC=CCCCOC(=O)N3CC[C@@](C(=O)N[C@@H](Cc4ccccc4Cl)C(=O)N[C@@H](Cc4csc5ccccc45)C(=O)N[C@@H](CCC(N)=O)C(=O)N[C@H](CO)[C@@H](C)O)(C3)NC(=O)[C@H](CC(C)C)NC(=O)[C@H](Cc3ccccc3)NC(=O)[C@H](C)NC(=O)[C@H](C)NC(=O)[C@H](Cc3cccc(C(=O)O)c3)NC(=O)[C@H](CC(=O)O)NC1=O)NC(=O)[C@H](CC(C)(C)C)NC(=O)[C@H](CC(=O)O)NC2=O (stereo partly drawn) [I-1677, Ac-PL3-Asp-Npg-B5-Asp-3COOHF-Ala-Ala-Phe-Leu-PyrS2-2C1F-BztA-Gln-Thro1]",17
10,"CC(=O)N1CCC[C@]12CC=CCCCC1(CCCC=CCCCOC(=O)N3CC[C@@](C(=O)N[C@@H](Cc4ccccc4)C(=O)N[C@@H](Cc4csc5ccccc45)C(=O)N[C@@H](CCC(N)=O)C(N)=O)(C3)NC(=O)[C@H](CC(C)C)NC(=O)[C@H](Cc3ccccc3)NC(=O)[C@H](C)NC(=O)[C@H](CCCCNC(C)C)NC(=O)[C@H](Cc3c[nH]cn3)NC(=O)[C@H](CC(=O)O)NC1=O)NC(=O)[C@H](CC1CCCCC1)NC(=O)[C@H](CC(N)=O)NC2=O (stereo partly drawn) [I-2348, Ac-PL3-Asn-Cha-B5-Asp-His-iPrLys-Ala-Phe-Leu-PyrS2-Phe-BztA-Gln-NH2]",179
11,"CC(=O)N1CCC[C@]12CC=CCCCC1(CCCC=CCCCOC(=O)N3CC[C@@](C(=O)N[C@@H](Cc4ccsc4)C(=O)N[C@@H](Cc4csc5ccccc45)C(=O)N[C@@H](CCC(N)=O)C(=O)NC4CCCCC4)(C3)NC(=O)[C@H](CC(N)=O)NC(=O)[C@H](Cc3ccccc3)NC(=O)[C@H](C)NC(=O)[C@H](C)NC(=O)[C@H](CN(CC(=O)O)CC(F)(F)F)NC(=O)[C@H](CC(=O)O)NC1=O)NC(=O)[C@H](CC(C)(C)C)NC(=O)[C@H](CC(=O)O)NC2=O (stereo partly drawn) [I-1642, Ac-PL3-Asp-Npg-B5-Asp-TfeGA-Ala-Ala-Phe-Asn-PyrS2-3Thi-BztA-Gln-NHCyHe]",36
12,"CC(=O)N1CCC[C@]12CC=CCCCCC1(CCCCC=CCOC(=O)N3CC[C@@](C(=O)N[C@@H](Cc4ccccc4C(F)(F)F)C(=O)N[C@@H](Cc4csc5ccccc45)C(=O)N[C@@H](C)C(N)=O)(C3)NC(=O)[C@H](CC(C)C)NC(=O)[C@H](Cc3ccccc3)NC(=O)[C@H](C)NC(=O)[C@H](CCC(N)=O)NC(=O)[C@H](Cc3cccc(C(=O)O)c3)NC(=O)[C@H](CC(=O)O)NC1=O)NC(=O)[C@H](CC(C)(C)C)NC(=O)[C@H](CC(=O)O)NC2=O (stereo partly drawn) [I-2507, Ac-PL3-Asp-Npg-B6-Asp-3COOHF-Gln-Ala-Phe-Leu-PyrS-2F3MeF-BztA-Ala-NH2]",168
